According to US20150250166A1, “NOOTKATONE AS AN INSECTICIDE AND INSECT REPELLENT” (ALLYLIX, INC., priority 2012, published 2015):

Tested on: adult bed bugs (Cimex lectularius)
Test: Bed bug repellency, treated versus untreated filter paper halves in Petri dish chamber
Assay type: in vivo
Conditions: for Repellency (%) Treatment Group / bed bugs on Nootkatone treatment filter paper (count, of 50) / Repellency (summary of bedbug repellency): 0.1% BHT; for Corrected 0.25% nootkatone repellency / bed bugs on 0.25% Nootkatone-treated filter paper, average count (of 10) / Corrected 1% nootkatone repellency / bed bugs on 1% Nootkatone-treated filter paper, average count (of 10): 0.1% BHT in ethanol, dried paper; for Nootkatone Repellency / bed bugs on nootkatone-treated filter paper (count, of 50): 5% Nootkatone in acetone, 0.1% BHT (title; column head prints 10%); for Nootkatone Repellency (corrected for isopropanol control) / bed bugs on 10% Nootkatone-treated filter paper, average count of five trials (of 10): 10% nootkatone, 0.1% BHT in isopropanol
Experimental: A formulation, containing 10% nootkatone, 0.1% butylated hydroxytoluene (BHT) in isopropanol was tested for efficacy for repelling adult bed bugs (Cimex lectularius). Treatment chambers were created by cutting a circular hole in the bottom of 15-cm Petri dishes. A fine mesh nylon cloth was then glued to Petri dishes, covering the holes. The chambers were formed using the inverted Petri dishes with the screened bottoms serving as the tops and the lids forming the base of the chambers. The lids were secured with rubber bands.
Five semi-circular pieces of filter paper, with a diameter of 15 cm, were arranged so that they were evenly spaced on a sheet of aluminum foil. Equal amounts of 10% nootkatone solution, stored at ambient temperature and humidity, were applied to the filter papers until they were wet to the point of runoff. Five untreated semi-circular pieces were marked with the letter “c”, for control, on both sides in pencil or solvent resistant ink. One nootkatone-treated filter paper and one untreated filter paper were placed with the flat sides against each other, creating a full circle, in the lids of five 15-cm Petri dishes, serving as the treatment chambers described above, such that the entire surface of the lid was covered. Immediately after placing the filter paper semi-circles into the lid, 10 bed bugs, having received a blood meal no more than 7 days before, were placed onto the untreated piece of paper and covered with the ventilated base of the Petri dish. The containers of each replicate were then kept at ambient laboratory temperature and humidity for the duration of the study. The distribution of the bed bugs on the treated and untreated filter papers was recorded at 0.5, 1, 1.5, 2, and 24 hours after being placed in the containers. Observations were made in darkness with the aid of a red lens flashlight. Gloves and a dust mask were worn by the observer to reduce detection of the bed bugs and to minimize disturbance caused by the observer. Five additional treatment chambers were created as described above, except the treated filter paper was soaked with isopropyl alcohol (control treatment), instead of the 10% nootkatone solution. Bed bug distribution in the control chambers were recorded as described for the treatment condition.
The nootkatone treatment repellency was calculated from the following equation: R=[(C−T)/C]*100, where R is the % repellency, C is the fraction of bed bugs on the isopropanol-treated filter papers, and T is the fraction of bed bugs on the nootkatone-treated filter papers.
A formulation, containing 5% nootkatone, 0.1% butylated hydroxytoluene (BHT) in acetone was tested for efficacy for repelling adult bed bugs (Cimex lectularius) using the methods as described above.
The duration of 1% and 0.25% nootkatone […] repellent effects was evaluated in this example. Bed bug (Cimex lectularius) treatment chambers were created as described in part A above, except using 9-cm Petri dishes and semicircles of filter paper with a diameter of 9 cm. Five replicate semicircles of filter paper were treated with 1 ml 1.0% nootkatone, 0.1% BHT in ethanol; 0.25% nootkatone, 0.1% BHT in ethanol; or ethanol alone (control), and placed side by side with untreated filter papers (marked with a “c”) in Petri dishes so that the lid surfaces were completely covered as previously described in part A. Prior to addition of the bed bugs, the filter papers were confirmed to be completely dry and free of any residual ethanol odor.
Following chamber preparation, 10 bed bugs, having received a blood meal no more than 7 days prior, were added to each chamber on the untreated filter paper as described above. Distribution of the 10 bed bugs per chamber was recorded at 0.5, 1, 1.5, 2, and 24 hours following treatment (Day 1). At the end of 24 hours, the old bed bugs were removed from the Petri dish and 10 new bed bugs were added. […]

[1] = 0.01% nootkatone in acetone, Day 1, 0.5 hour
[2] = 0.01% nootkatone in acetone, Day 1, 1.5 hour
[3] = 0.01% nootkatone in acetone, Day 1, 2.0 hour
[4] = 0.01% nootkatone in acetone, Day 1, Average of time points
[5] = 0.01% nootkatone in acetone, Day 2, 0.5 hour
[6] = 0.01% nootkatone in acetone, Day 2, 1.0 hour
[7] = 0.01% nootkatone in acetone, Day 2, 1.5 hour
[8] = 0.01% nootkatone in acetone, Day 2, 2.0 hour
[9] = 0.01% nootkatone in acetone, Day 2, 24.0 hour
[10] = 0.01% nootkatone in acetone, Day 2, Average of time points
[11] = 0.10% nootkatone in acetone, Day 1, 1.0 hour
[12] = 0.10% nootkatone in acetone, Day 1, 1.5 hour
[13] = 0.10% nootkatone in acetone, Day 1, 24.0 hour
[14] = 0.10% nootkatone in acetone, Day 1, Average of time points
[15] = 0.10% nootkatone in acetone, Day 2, 0.5 hour
[16] = 0.10% nootkatone in acetone, Day 2, 1.0 hour
[17] = 0.10% nootkatone in acetone, Day 2, 1.5 hour
[18] = 0.10% nootkatone in acetone, Day 2, 2.0 hour
[19] = 0.10% nootkatone in acetone, Day 2, 24.0 hour
[20] = 0.10% nootkatone in acetone, Day 2, Average of time points
[21] = 0.50% nootkatone in acetone, Day 1, 1.0 hour
[22] = 0.50% nootkatone in acetone, Day 1, 1.5 hour
[23] = 0.50% nootkatone in acetone, Day 1, 2.0 hour
[24] = 0.50% nootkatone in acetone, Day 1, 24.0 hour
[25] = 0.50% nootkatone in acetone, Day 2, 0.5 hour
[26] = 0.50% nootkatone in acetone, Day 2, 1.5 hour
[27] = 0.50% nootkatone in acetone, Day 2, 2.0 hour
[28] = 0.50% nootkatone in acetone, Day 2, 24.0 hour

Compound: C=C(C)[C@@H]1CCC2=CC(=O)C[C@@H](C)[C@]2(C)C1 [nootkatone, 4,4a,5,6,7,8-hexahydro-6-isopropenyl-4,4a-dimethyl-2(3H)-naphtalenone]
- Repellency (%) Treatment Group [1]: 68.0%
- bed bugs on Nootkatone treatment filter paper (count, of 50) [1]: 16
- bed bugs on Nootkatone treatment filter paper (count, of 50) (0.01% nootkatone in acetone, Day 1, 1.0 hour): 17
- Repellency (%) Treatment Group [2]: 66.0%
- bed bugs on Nootkatone treatment filter paper (count, of 50) [2]: 17
- Repellency (%) Treatment Group [3]: 72.0%
- bed bugs on Nootkatone treatment filter paper (count, of 50) [3]: 14
- Repellency (%) Treatment Group (0.01% nootkatone in acetone, Day 1, 24.0 hour): 58.0%
- Repellency (%) Treatment Group [4]: 66.0%
- bed bugs on Nootkatone treatment filter paper (count, of 50) [4]: 17.0
- Repellency (%) Treatment Group [5]: 82.0%
- bed bugs on Nootkatone treatment filter paper (count, of 50) [5]: 9
- Repellency (%) Treatment Group [6]: 72.0%
- bed bugs on Nootkatone treatment filter paper (count, of 50) [6]: 14
- Repellency (%) Treatment Group [7]: 62.0%
- bed bugs on Nootkatone treatment filter paper (count, of 50) [7]: 19
- Repellency (%) Treatment Group [8]: 64.0%
- bed bugs on Nootkatone treatment filter paper (count, of 50) [8]: 18
- Repellency (%) Treatment Group [9]: 62.0%
- bed bugs on Nootkatone treatment filter paper (count, of 50) [9]: 19
- Repellency (%) Treatment Group [10]: 68.4%
- bed bugs on Nootkatone treatment filter paper (count, of 50) [10]: 15.8
- bed bugs on Nootkatone treatment filter paper (count, of 50) (0.10% nootkatone in acetone, Day 1, 0.5 hour): 3
- Repellency (%) Treatment Group [11]: 92.0%
- bed bugs on Nootkatone treatment filter paper (count, of 50) [11]: 4
- Repellency (%) Treatment Group [12]: 90.0%
- bed bugs on Nootkatone treatment filter paper (count, of 50) [12]: 5
- bed bugs on Nootkatone treatment filter paper (count, of 50) (0.10% nootkatone in acetone, Day 1, 2.0 hour): 3
- Repellency (%) Treatment Group [13]: 98.0%
- bed bugs on Nootkatone treatment filter paper (count, of 50) [13]: 1
- Repellency (%) Treatment Group [14]: 93.6%
- bed bugs on Nootkatone treatment filter paper (count, of 50) [14]: 3.2
- Repellency (%) Treatment Group [15]: 72.0%
- bed bugs on Nootkatone treatment filter paper (count, of 50) [15]: 14
- Repellency (%) Treatment Group [16]: 70.0%
- bed bugs on Nootkatone treatment filter paper (count, of 50) [16]: 15
- Repellency (%) Treatment Group [17]: 74.0%
- bed bugs on Nootkatone treatment filter paper (count, of 50) [17]: 13
- Repellency (%) Treatment Group [18]: 70.0%
- bed bugs on Nootkatone treatment filter paper (count, of 50) [18]: 15
- Repellency (%) Treatment Group [19]: 82.0%
- bed bugs on Nootkatone treatment filter paper (count, of 50) [19]: 9
- Repellency (%) Treatment Group [20]: 73.6%
- bed bugs on Nootkatone treatment filter paper (count, of 50) [20]: 13.2
- bedbug repellency, in words (0.1% nootkatone in acetone, day two): moderate (statistically significant) repellent
- bedbug repellency, in words (0.25% nootkatone in ethanol): not sufficient to repel bed bugs
- Corrected 0.25% nootkatone repellency (Day 1): 19%
- bed bugs on 0.25% Nootkatone-treated filter paper, average count (of 10) (Day 1): 2.68
- Corrected 0.25% nootkatone repellency (Day 2): 23%
- bed bugs on 0.25% Nootkatone-treated filter paper, average count (of 10) (Day 2): 4.2
- Corrected 0.25% nootkatone repellency (Day 3): 49%
- bed bugs on 0.25% Nootkatone-treated filter paper, average count (of 10) (Day 3): 2.32
- Corrected 0.25% nootkatone repellency (Day 4): −14%
- bed bugs on 0.25% Nootkatone-treated filter paper, average count (of 10) (Day 4): 4
- Repellency (%) Treatment Group [21]: 100.0%
- bed bugs on Nootkatone treatment filter paper (count, of 50) [21]: 0
- Repellency (%) Treatment Group [22]: 100.0%
- bed bugs on Nootkatone treatment filter paper (count, of 50) [22]: 0
- Repellency (%) Treatment Group [23]: 100.0%
- bed bugs on Nootkatone treatment filter paper (count, of 50) [23]: 0
- Repellency (%) Treatment Group [24]: 100.0%
- bed bugs on Nootkatone treatment filter paper (count, of 50) [24]: 0
- Repellency (%) Treatment Group (0.50% nootkatone in acetone, Day 1, Average of time points): 100.0%
- Repellency (%) Treatment Group [25]: 86.0%
- bed bugs on Nootkatone treatment filter paper (count, of 50) [25]: 7
- bed bugs on Nootkatone treatment filter paper (count, of 50) (0.50% nootkatone in acetone, Day 2, 1.0 hour): 6
- Repellency (%) Treatment Group [26]: 94.0%
- bed bugs on Nootkatone treatment filter paper (count, of 50) [26]: 3
- Repellency (%) Treatment Group [27]: 98.0%
- bed bugs on Nootkatone treatment filter paper (count, of 50) [27]: 1
- Repellency (%) Treatment Group [28]: 92.0%
- bed bugs on Nootkatone treatment filter paper (count, of 50) [28]: 4
- Repellency (%) Treatment Group (0.50% nootkatone in acetone, Day 2, Average of time points): 91.6%
- duration of bed bug repellency following treatment (1% nootkatone in ethanol on filter paper): about 4 days
- Corrected 1% nootkatone repellency (Day 1): 93%
- bed bugs on 1% Nootkatone-treated filter paper, average count (of 10) (Day 1): 0.24
- Corrected 1% nootkatone repellency (Day 2): 66%
- bed bugs on 1% Nootkatone-treated filter paper, average count (of 10) (Day 2): 1.84
- Corrected 1% nootkatone repellency (Day 3): 81%
- bed bugs on 1% Nootkatone-treated filter paper, average count (of 10) (Day 3): 0.88
- Corrected 1% nootkatone repellency (Day 4): 84%
- bed bugs on 1% Nootkatone-treated filter paper, average count (of 10) (Day 4): 0.56
- Corrected 1% nootkatone repellency (Day 5): 68%
- bed bugs on 1% Nootkatone-treated filter paper, average count (of 10) (Day 5): 1.52
- Corrected 1% nootkatone repellency (Day 6): 20%
- bed bugs on 1% Nootkatone-treated filter paper, average count (of 10) (Day 6): 2.24
- Corrected 1% nootkatone repellency (Day 7): 63%
- bed bugs on 1% Nootkatone-treated filter paper, average count (of 10) (Day 7): 1.84
- Nootkatone Repellency (0.5 hr): 100.0%
- bed bugs on nootkatone-treated filter paper (count, of 50) (0.5 hr): 0
- Nootkatone Repellency (1 hr): 100.0%
- bed bugs on nootkatone-treated filter paper (count, of 50) (1 hr): 0
- Nootkatone Repellency (1.5 hr): 100.0%
- bed bugs on nootkatone-treated filter paper (count, of 50) (1.5 hr): 0
- Nootkatone Repellency (2 hr): 100.0%
- bed bugs on nootkatone-treated filter paper (count, of 50) (2 hr): 0
- Nootkatone Repellency (24 hr): 100.0%
- bed bugs on nootkatone-treated filter paper (count, of 50) (24 hr): 0
- Nootkatone Repellency (Averages of time points): 100.0%
- bed bugs on nootkatone-treated filter paper (count, of 50) (Averages of time points): 0
- bed bug repellency compared with acetone alone, in words (5% nootkatone in acetone): repels bed bugs to a greater extent than that observed for acetone alone
- bed bug repellency compared with isopropanol alone, in words (10% nootkatone in isopropyl alcohol): repels bed bugs to a greater extent than that observed for isopropanol alone
- Nootkatone Repellency (corrected for isopropanol control) (0.5 hr): 85.7%
- bed bugs on 10% Nootkatone-treated filter paper, average count of five trials (of 10) (0.5 hr): 0.4
- Nootkatone Repellency (corrected for isopropanol control) (1 hr): 100.0%
- bed bugs on 10% Nootkatone-treated filter paper, average count of five trials (of 10) (1 hr): 0
- Nootkatone Repellency (corrected for isopropanol control) (1.5 hr): 100.0%
- bed bugs on 10% Nootkatone-treated filter paper, average count of five trials (of 10) (1.5 hr): 0
- Nootkatone Repellency (corrected for isopropanol control) (2 hr): 100.0%
- bed bugs on 10% Nootkatone-treated filter paper, average count of five trials (of 10) (2 hr): 0
- Nootkatone Repellency (corrected for isopropanol control) (24 hr): 100.0%
- bed bugs on 10% Nootkatone-treated filter paper, average count of five trials (of 10) (24 hr): 0
- Repellency (summary of bedbug repellency) (Nootkatone 0.010% in acetone, Day 2): 68.0%
- Repellency (summary of bedbug repellency) (Nootkatone 0.10% in acetone, Day 2): 73.6%
- Repellency (summary of bedbug repellency) (Nootkatone 0.50% in acetone, Day 1): 100.0%
- Repellency (summary of bedbug repellency) (Nootkatone 0.50% in acetone, Day 2): 91.6%
